Data published in patent US4687773A, “(+)-N-N-propylnorapomorphine and selective limbic activity” (priority 1985, dated 1987).
Counter-ions that a name gives are not always drawn. Like-named read-outs stand apart in the source and are kept apart here.

How the values were obtained:
[1] = tested on: DA in the corpus striatum (basal ganglia); assay: Head posture (contralateral head deviation) after intrastriatal DA; assay type: in vivo, rat
[2] = tested on: dopamine (DA) receptors in the basal ganglia (corpus striatum); assay: Stereotyped licking and gnawing behavior rating in the rat; assay type: in vivo; details: for SB Score, Percent of Maximum / SB Score (stereotyped behaviors): Table 12, 3 mg/kg ip; for SB Score (stereotyped behaviors): max. possible score 18.0; for stereotyped behavior (in words): rat, in vivo
From the text: Stereotypy: The mean stereotyped licking and gnawing behavioral rating scheme developed by Tarsy and Baldessarini^8 was used. […]
Stereotypy scores were rated for one hour as described in […]

[3] = tested on: dopamine (DA) receptors in the limbic system; assay: Locomotor activity (spontaneous or aroused by (-)APO / (-)NPA), electronic activity monitor; assay type: in vivo, rat; details: for increase of the locomotor stimulatory effect of APO: with (-)APO; for EAM Score / EAM Score, Percent of Control / interaction with (-)APO locomotor arousal (in words): Table 11; for EAM Score: 60 min; for interaction with (-)APO locomotor arousal (in words): 3 mg/kg ip with (-)APO; for effect on locomotor-arousal activity (in words): with or without (-) isomer; for Locomotion: Table 4
Description: (§1) Activity: Overall motor activity was measured by use of the self-recording Stoelting electronic activity monitor method described previously by Stewart, Campbell, Sperk, and Baldessarini^9. Total activity is obtained by setting monitor sensitivity so as to detect both locomotion and small movements (such as grooming, sniffing, and chewing) as would be prominent in stereotyped responses that tend to diminish locomotion and increase sniffing, licking, and chewing movements. Locomotor activity is detected selectively by setting monitor sensitivity to detect large, locomotor movements, and to minimize smaller movements already described.
Rats (mean N=6 per condition) were tested for locomotor activity for 60 min following a single dose of (-)APO (0.3 mg/kg, SC), or its vehicle ("placebo" condition). The S(+) isomers were administered in a range of doses from 0 or 0.1 to 30 mg/kg, SC immediately following injection of (-)APO or its vehicle. Data are presented in FIG. 2 as mean EAM activity counts per hour SEM. In that figure, the dashed line labeled "control" represents the mean activity of rats given vehicle only and no aporphine (SD values are indicated by parallel light lines above and below the control mean).
Test agents (11substituted-N--propylnoraporphine isomers were given at a
dose of 3 mg/kg, ip (in 2 ml/kg) just prior to (-)apomorphine (APO, at 0.
mg/kg, ip, in 1 ml/kg) to rats (N = 6) tested in an electronic activity

[4] = tested on: DA in the limbic system (nucleus accumbens septi); assay: Arousal (locomotor activity) induced by DA injected into nucleus accumbens septi; assay type: in vivo, rat; details: for activity counts (arousal induced by 16 μg DA in accumbens): 30 min, DA control 238 ± 38; for ED50: Rattus norvegicus; for ED50 / ID50: DA 16 μg in accumbens; for ID50: hydrochloride
Description: An experiment shown in Table 9 involves testing the effects of S(+) isomers of apomorphine (APO) and N-propylnorapomorphine (NPA) given systemically (intraperitoneally, ip), as well as S(+) methylenedioxy-N-propylnorapomorphine (MDO-NPA) given ip or orally (po, by orogastric intubation). […]. […] Activity was monitored for 30 min after injection of DA into the brain, which was done at 10 min after systemic dosing with an S(+)aporphine test compound.
Data are mean activity counts ± SEM (N = 6) for rats given DA into the
medial accumbens after pretreatment with an inhibitor of monoamine oxidas
(MA0), and monitored on EAM for 30 min (aporphine given 10 min before DA
systemicallyintraperitoneally [ip] or orally [po].

[5] = tested on: dopamine (DA) receptors in the limbic system; assay: Effect of metabolic inhibitor SKF-525A on locomotor effect of (+)MDO-NPA; assay type: in vivo, rat
Description: Rats (N = 6) per condition) were tested by monitoring locomotor activity
on an electronic monitor under higharousal conditions (7-8 PM during earl
"lights out" phase, and singly in previously occupied test cages).
Pretreatment was saline (control) or the microsomal inhibitor SKF525A (40
mg/kg, ip). At 30 min later, saline or (+)MDONPA (3 mg/kg, ip) was given,
and the rats were monitored for the next 60 min. Data are activity counts
per hour, as means ± SEM ([*] = significant by ttest at p < 0.05). Th

[6] = tested on: dopamine (DA) receptors in the limbic system and basal ganglia; assay: Total motor activity, electronic activity monitor (EAM); assay type: in vivo, rat; details: Table 4
Description: as §1
All data presented in the Tables below are expressed as the mean results from 4-6 rats per condition, ±S.E.M. Stereotypy is expressed in rating units (maximum=3.0) and activity is expressed in arbitrary units of percent change, derived from EAM counts per unit time, relative to activity in control (saline) animals set at zero.
All the posttreatment doses of (+)APO were 3.0 mg/kg, s.c. The data
All posttreatment doses of (+)NPA were 3 mg/kg, s.c. The data are similar

[7] = tested on: dopamine (DA) receptors in the limbic system; assay: Locomotor activity (spontaneous or aroused by (-)APO / (-)NPA), electronic activity monitor; assay type: in vivo, rat; details: Table 4; (-)APO 3.0 mg/kg + saline
[8] = intrastriatal dopamine 16 μg + systemic saline
[9] = test agent 3 mg/kg ip just prior to (-)APO ip
[10] = test agent 3 mg/kg ip just prior to (-)APO ip, * p < 0.005
[11] = intrastriatal DA 16 μg, 3 mg/kg ip
[12] = intrastriatal DA 16 μg, 3 mg/kg po
[13] = SKF-525A 40 mg/kg ip pretreatment, then S(+)MDO-NPA 3 mg/kg ip
[14] = SKF-525A 40 mg/kg ip, then saline

Compound: NCCc1ccc(O)c(O)c1 [DA, dopamine]
- Contralateral Head Deviation, Percent of Total [1, 8]: 59.0% of Total
- Contralateral Head Deviation, Time [1, 8]: 425 ± 53 s

Compound: CCCN1CCc2cccc3c2[C@H]1Cc1cccc(O)c1-3 [(-)11-OH--N--propylnoraporphine, R(-)11-hydroxy-N-propylnoraporphine]
- SB Score, Percent of Maximum [2]: 76.7% of Maximum
- SB Score (stereotyped behaviors) ([2]; one hour): 13.8 ± 0.75
- stereotyped behavior (in words) ([2]; listed as R(-)11-hydroxy-N-- propylnoraporphine): very active
- stereotyped behavior (in words) ([2]; listed as R(-)11-hydroxy-N-propylnoraporphine): striking activity as a DA agonist
- increase of the locomotor stimulatory effect of APO ([3]; 3 mg/kg): 51%
- EAM Score [3, 9]: 764 ± 58
- EAM Score, Percent of Control [3, 10]: 151% of Control

Compound: CCCN1CCc2cccc3c2[C@@H]1Cc1ccc2c(c1-3)OCO2 [(+)MDO-NPA, S(+) 10,11-methylenedioxy-N-propylnoraporphine hydrochloride]
- activity counts (arousal induced by 16 μg DA in accumbens) ([4]; 0.3 mg/kg ip): 122 ± 16 activity counts
- activity counts (arousal induced by 16 μg DA in accumbens) ([4]; 0.3 mg/kg po): 149 ± 23 activity counts
- activity counts (arousal induced by 16 μg DA in accumbens) ([4]; 1.0 mg/kg ip): 54 ± 9 activity counts
- activity counts (arousal induced by 16 μg DA in accumbens) ([4]; 1.0 mg/kg po): 74 ± 17 activity counts
- activity counts (arousal induced by 16 μg DA in accumbens) ([4]; 3.0 mg/kg ip): 36 ± 7 activity counts
- activity counts (arousal induced by 16 μg DA in accumbens) ([4]; 3.0 mg/kg po): 49 ± 16 activity counts
- ED50 ([4]; ip, read-out: ID50, ip): 0.27 mg/kg
- ED50 ([4]; po, read-out: ID50, po): 0.51 mg/kg
- ID50 ([4]; ip): 0.3 mg/kg
- ID50 ([4]; po): 0.5 mg/kg
- effect on arousal induced by DA in accumbens (in words) ([4]; rat, in vivo): also active after systemic oral administration, selectively, against DA placed in the accumbens but not the striatum
- times more potent than (+)APO as inhibitor of DA in the limbic system ([4]; vs (+)APO): 13 times
- Contralateral Head Deviation, Percent of Total [1, 11]: 71.7% of Total
- Contralateral Head Deviation, Time [1, 11]: 512 ± 96 s
- Contralateral Head Deviation, Percent of Total [1, 12]: 70.1% of Total
- Contralateral Head Deviation, Time [1, 12]: 505 ± 89 s
- Locomotor Activity [5, 13]: 3445 ± 597 counts/hr
- Locomotor Activity (%) [5, 13]: 82%
- Locomotor Activity ([5]; saline pretreatment, then S(+)MDO-NPA 3 mg/kg ip): 1828 ± 265 counts/hr
- Locomotor Activity (%) ([5]; saline pretreatment, then S(+)MDO-NPA 3 mg/kg ip, * p < 0.05): 43%

Compound: CCCC(C(=O)OCCN(CC)CC)(c1ccccc1)c1ccccc1 [SKF-525A]
- Locomotor Activity [5, 14]: 4777 ± 610 counts/hr
- Locomotor Activity (%) [5, 14]: 113%

Compound: CCCN1CCc2cccc3c2[C@@H]1Cc1cccc(O)c1-3 [(+)11-OH--N--propylnoraporphine, S(+) 11-hydroxy-N-propylnoraporphine hydrochloride and hydrobromide]
- SB Score, Percent of Maximum [2]: 6.9% of Maximum
- SB Score (stereotyped behaviors) ([2]; one hour): 1.3 ± 0.75
- stereotyped behavior (in words) [2]: virtually inactive
- interaction with (-)APO locomotor arousal (in words) ([3]; listed as S(+)11-hydroxy-N-propylnoraporphine, hydrobromide, 3 mg/kg): strong inhibitory interaction with APO
- interaction with (-)APO locomotor arousal (in words) ([3]; listed as S(+)11hydroxy-N--propylnoraporphine, hydrobromide, 3 mg/kg): significant inhibition of arousal
- EAM Score [3, 9]: 218 ± 33
- EAM Score, Percent of Control [3, 10]: 43% of Control
- effect on locomotor-arousal activity (in words) [3]: exerted similarly selective actions as (+)NPA

Compound: CN1CCc2cccc3c2[C@@H]1Cc1cccc(O)c1-3 [S(+) 11-hydroxyaporphine, S(+) 11-hydroxyaporphine (N-R=N-methyl)]
- effect on locomotor-arousal activity (in words) [3]: less active

Compound: CCCN1CCc2cccc3c2[C@@H]1Cc1cccc(OC)c1-3 [(+)11-methoxy-N--propylnoraporphine, S(+) 11-Methoxy-N-propylnoraporphine hydrobromide]
- SB Score, Percent of Maximum [2]: 0.0% of Maximum
- SB Score (stereotyped behaviors) ([2]; one hour): 0 ± 0
- stereotyped behavior (in words) [2]: inactive
- interaction with (-)APO locomotor arousal (in words) [3]: devoid of activity
- EAM Score [3, 9]: 528 ± 25
- EAM Score, Percent of Control [3, 10]: 105% of Control

Compound: CN1CCc2cccc3c2[C@H]1Cc1ccc(O)c(O)c1-3 [(-)APO, R(-)apomorphine]
- mean control stereotypy score, % of maximum ([2]; (-)APO 0.3 mg/kg IP + vehicle): 51.3 % of maximum
- mean control stereotypy score ([2]; (-)APO 0.3 mg/kg IP + vehicle, one hour, maximum possible score 18.0): 9.23 ± 0.43
- approximate ED50 (stereotyped behavior) ([2]; (-)APO, IP, rats): ~0.3 mg/kg
- Stereotypy Score ([2]; Table 1, (-) isomer 3 mg/kg, s.c., ± saline, maximum 3.0): 3.0 ± 0.0 rating units
- Stereotypy Score ([2]; Table 4, (-)APO 0.3 mg/kg + saline): 1.62 ± 0.23 rating units
- Stereotypy Score ([2]; Table 4, (-)APO 1.0 mg/kg + saline): 2.09 ± 0.36 rating units
- Stereotypy Score ([2]; Table 4, (-)APO 3.0 mg/kg + saline): 2.92 ± 0.20 rating units
- Total Activity ([6]; (-)APO 0.3 mg/kg + saline): 42.2 ± 8.5 percent change
- Total Activity ([6]; (-)APO 1.0 mg/kg + saline): 51.9 ± 6.8 percent change
- Total Activity ([6]; (-)APO 3.0 mg/kg + saline): 75.3 ± 8.6 percent change
- Locomotion ([3]; (-)APO 0.3 mg/kg + saline): 63.5 ± 12.3 percent change
- Locomotion ([3]; (-)APO 1.0 mg/kg + saline): 75.8 ± 19.4 percent change
- EAM Score, Percent of Control ([3]; (-)APO alone (control)): 100% of Control
- EAM Score ([3]; (-)APO alone (control), ip): 505 ± 55
- Locomotion [7]: 48.6 ± 9.3 percent change

Compound: CCCN1CCc2cccc3c2[C@H]1Cc1cccc(OC)c1-3 [(-)11-methoxy-N--propylnoraporphine]
- SB Score, Percent of Maximum [2]: 36.1% of Maximum
- SB Score (stereotyped behaviors) ([2]; one hour): 6.5 ± 0.50
- stereotyped behavior (in words) ([2]; listed as 11-methoxy congener): moderately active
- stereotyped behavior (in words) ([2]; listed as R(-)11methoxy analog): had some activity
- increase of the locomotor stimulatory effect of APO ([3]; 3 mg/kg): 14%
- EAM Score [3, 9]: 574 ± 45
- EAM Score, Percent of Control [3, 10]: 114% of Control
